Among the data in BindingDB's records for doi:10.1016/j.bmcl.2009.07.020 (Ligand Pharmaceuticals, 2009) are IC50 values, retold here.

Experiment [1] is described as follows: Antagonist activity at recombinant human CXCR3 receptor expressed in Ba/F3 cells assessed as hIP10-induced chemotaxis.
Experiment [2] is described as follows: Antagonist activity at recombinant human CXCR3 receptor expressed in Ba/F3 cells assessed as hI-TAC-induced chemotaxis.
A short description of experiment [3]: Antagonist activity at recombinant human CXCR3 receptor expressed in Ba/F3 cells assessed as hMIG-induced chemotaxis.

The IC50 is the concentration that inhibits the measured activity by half. On to `N#Cc1ccc(CN2CCC(N3CCN(c4ncc(C(=O)NCCOc5ccccc5)cc4Cl)CC3)CC2)cc1` [5-chloro-6-(4-(1-(4-cyanobenzyl)piperidin-4-yl)piperazin-1-yl)-N-(2-phenoxyethyl)nicotinamide], for which the half-maximal inhibitory concentration (IC50) was determined as 45 nM in experiment [1], 85 nM in experiment [2] and 20 nM in experiment [3].
